Laboratory results published in Sander's compilation of Henry's law constants (doi:10.1021/es00099a010).

Test: Henry solubility constant Hcp at 298.15 K (mol/(m3 Pa))
Conditions: reference: Atlas et al. (1982)

SMILES	Henry solubility constant Hcp
Clc1ccc(-c2ccc(Cl)c(Cl)c2Cl)cc1 [2,3,4,4'-tetrachlorobiphenyl]	0.012
Clc1ccccc1-c1cccc(Cl)c1Cl [2,2',3-trichlorobiphenyl]	0.012
Clc1ccc(-c2ccccc2Cl)cc1 [2,4'-dichlorobiphenyl]	0.01
Clc1ccc(-c2cc(Cl)ccc2Cl)cc1 [2,4',5-trichlorobiphenyl]	0.011
ClC(Cl)=C(c1ccc(Cl)cc1)c1ccc(Cl)cc1 [1,1-dichloro-2,2-bis-(4-chlorophenyl)-ethene]	0.0081
Clc1cccc(-c2cccc(Cl)c2Cl)c1 [2,3,3'-trichlorobiphenyl]	0.012
ClC1=C(Cl)[C@]2(Cl)[C@H]3[C@H](Cl)[C@@H](Cl)C[C@H]3[C@@]1(Cl)C2(Cl)Cl [trans-chlordane]	0.0074
Clc1ccc(Cl)c(-c2cccc(Cl)c2Cl)c1 [2,2',3,5'-tetrachlorobiphenyl]	0.013
ClC1=C(Cl)[C@]2(Cl)[C@@H]3[C@@H](Cl)[C@@H](Cl)C[C@@H]3[C@@]1(Cl)C2(Cl)Cl [cis-chlordane]	0.011
Clc1ccc(Cl)c(-c2cc(Cl)ccc2Cl)c1 [2,2',5,5'-tetrachlorobiphenyl]	0.011
Clc1ccc(-c2ccc(Cl)c(Cl)c2)cc1 [3,4,4'-trichlorobiphenyl]	0.012
Clc1cc(Cl)c(-c2ccccc2Cl)c(Cl)c1 [2,2',4,6-tetrachlorobiphenyl]	0.013
Clc1ccc(Cl)c(-c2ccccc2Cl)c1 [2,2',5-trichlorobiphenyl]	0.0099
ClC1C(Cl)C(Cl)C(Cl)C(Cl)C1Cl (stereo not drawn) [α-1,2,3,4,5,6-hexachlorocyclohexane]	0.42
